In PubChem BioAssay AID1259411 (Chemical Carcinogenesis Research Information System (CCRIS), 2018):
Activity calls are given as the source filed them. How the calls were made is not given here.

Tested on: rodent carcinogenicity bioassays, tumor incidence
Assay: CCRIS carcinogenicity studies
How it was run: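 Archive of carcinogenicity, mutagenicity, tumor promotion and tumor inhibition results drawn from journals, NCI reports and other sources, expert-reviewed; covers 1985-2011 and is no longer updated.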

What does the source list for `CCN(Cc1cccc(S(=O)(=O)[O-])c1)c1ccc(C(=C2C=CC(=[N+](C)C)C=C2)c2ccc(N(CC)Cc3cccc(S(=O)(=O)O)c3)cc2)cc1`?
carcinogen call (Species: MOUSE, Strain/Sex: SWISS-WEBSTER/FEMALE, Route: DERMAL, Dose: 0, 1% IN 0.1 ML DISTILLED WATER 1/WK FOR 18 MO (STUDY DURATION: 18 MO)): inactive; negative; carcinogen call (Species: MOUSE, Strain/Sex: SWISS-WEBSTER/MALE, Route: DERMAL, Dose: 0, 1% IN 0.1 ML DISTILLED WATER 1/WK FOR 18 MO (STUDY DURATION: 18 MO)): inactive; negative; carcinogen call (Species: RAT, Route: ORAL, Tumor Site: Type of Lesion: MAMMARY GLAND, INTEGUMENTARY SYSTEM (SKIN)): active; positive; carcinogen call (Species: RAT, Route: SUBCUTANEOUS, Tumor Site: Type of Lesion: INJECTION SITE): active; positive

What does the source list for `CC(=O)OC1CC(C)OC(C)O1` (stereo unspecified)?
carcinogen call (Species: MOUSE, Strain/Sex: B6C3F1/FEMALE, Route: GAVAGE, Dose: 0, 250, 500 MG/KG IN CORN OIL 5 D/WK FOR 103 WK (STUDY DURATION: 105 WK), Dose: 0, 250, 500 MG/KG IN CORN OIL 5 D/WK FOR 103 WK (STUDY DURATION: 105 WK)): inactive; negative; carcinogen call (Species: MOUSE, Strain/Sex: B6C3F1/MALE, Route: GAVAGE, Dose: 0, 250, 500 MG/KG IN CORN OIL 5 D/WK FOR 103 WK (STUDY DURATION: 105 WK), Dose: 0, 250, 500 MG/KG IN CORN OIL 5 D/WK FOR 103 WK (STUDY DURATION: 105 WK), Tumor Site: Type of Lesion: FORESTOMACH: SQUAMOUS PAPILLOMA OR SQUAMOUS CELL CARCINOMA): equivocal; carcinogen call (Species: RAT, Route: ORAL, Tumor Site: Type of Lesion: LIVER): active; positive; carcinogen call (Species: RAT, Strain/Sex: F344/FEMALE, Route: GAVAGE, Dose: 0, 125, 250 MG/KG IN CORN OIL 5 D/WK FOR 103 WK (STUDY DURATION: 105 WK), Dose: 0, 125, 250 MG/KG IN CORN OIL 5 D/WK FOR 103 WK (STUDY DURATION: 105 WK)): inactive; negative; carcinogen call (Species: RAT, Strain/Sex: F344/MALE, Route: GAVAGE, Dose: 0, 62.5, 125 MG/KG IN CORN OIL 5 D/WK FOR 103 WK (STUDY DURATION: 105 WK), Dose: 0, 62.5, 125 MG/KG IN CORN OIL 5 D/WK FOR 103 WK (STUDY DURATION: 105 WK)): inactive; negative

Which carcinogen call (Species: MOUSE, Strain/Sex: B6C3F1/FEMALE, Route: INHALATION, Dose: 0, 75, 250, 750 PPM 6 HR/D 5 D/WK FOR 103 WK (STUDY DURATION: 104 WK), Dose: 0, 75, 250, 750 PPM 6 HR/D 5 D/WK FOR 103 WK (STUDY DURATION: 104 WK), Tumor Site: Type of Lesion: LIVER: HEPATOCELLULAR ADENOMA, HEPATOCELLULAR ADENOMA OR CARCINOMA) does the source give for `CCc1ccccc1` here?
The carcinogen call was “active; positive”.

And the carcinogen call (Species: MOUSE, Strain/Sex: B6C3F1/MALE, Route: INHALATION, Dose: 0, 75, 250, 750 PPM 6 HR/D 5 D/WK FOR 103 WK (STUDY DURATION: 104 WK), Dose: 0, 75, 250, 750 PPM 6 HR/D 5 D/WK FOR 103 WK (STUDY DURATION: 104 WK), Tumor Site: Type of Lesion: LUNG: ALVEOLAR/BRONCHIOLAR ADENOMA, ALVEOLAR/BRONCHIOLAR ADENOMA OR CARCINOMA)?
The carcinogen call was “active; positive”.

What about the carcinogen call (Species: RAT, Strain/Sex: F344/FEMALE, Route: INHALATION, Dose: 0, 75, 250, 750 PPM 6 HR/D 5 D/WK FOR 104 WK (STUDY DURATION: 105 WK), Dose: 0, 75, 250, 750 PPM 6 HR/D 5 D/WK FOR 104 WK (STUDY DURATION: 105 WK), Tumor Site: Type of Lesion: KIDNEY (RENAL TUBULE): ADENOMA) of the same compound?
Its carcinogen call is “active; positive”.

What about the carcinogen call (Species: RAT, Strain/Sex: F344/MALE, Route: INHALATION, Dose: 0, 75, 250, 750 PPM 6 HR/D 5 D/WK FOR 104 WK (STUDY DURATION: 105 WK), Dose: 0, 75, 250, 750 PPM 6 HR/D 5 D/WK FOR 104 WK (STUDY DURATION: 105 WK), Tumor Site: Type of Lesion: KIDNEY (RENAL TUBULE): ADENOMA) of the same compound?
The carcinogen call was “active; positive”.

And the carcinogen call (Species: RAT, Strain/Sex: STRAIN-CD/FEMALE, Route: INTRAGASTRIC, Dose: 0, 500 MG/KG IN OLIVE OIL 1/D 4-5 D/WK FOR 104 WK (STUDY DURATION: 104 WK))?
Its carcinogen call is “inactive; negative”.

And the carcinogen call (Species: RAT, Strain/Sex: STRAIN-CD/MALE, Route: INTRAGASTRIC, Dose: 0, 500 MG/KG IN OLIVE OIL 1/D 4-5 D/WK FOR 104 WK (STUDY DURATION: 104 WK))?
Its carcinogen call is “inactive; negative”.

With `C1CSCN1` as the compound, how does the carcinogen call (Species: MOUSE, Strain/Sex: CD-1/FEMALE, Route: DERMAL, Dose: 0, 50 UMOL/0.1 ML DMSO 2/WK FOR 5 WK FOLLOWED 1 WK LATER BY 0.1 ML ACETONE 2/WK FOR 47 WK (STUDY DURATION: 52 WK)) read?
The carcinogen call was “inactive; negative”.
